SMILES strings stand for the structures.

A short description of the data set: Adriamycin-induced focal segmental glomerulosclerosis (FSGS) in mice: urine protein, serum creatinine, BUN. The format is in vivo. Conditions: 8-week-old BALB/c mice, adriamycin 0.1 mg/per 10 g body weight intravenously, day 15. How it is done: 8-week-old BALB/c mice were injected with adriamycin (0.1 mg/per 10 g body weight) intravenously to induce Focal Segmental Glomerulosclerosis (FSGS). Blood, urine, and kidney tissue samples were collected at days 0, 7, 15, and 20 after injection. More specifically, the blood samples were collected from the retro-orbital venous plexus and the urine samples were collected by gentle abdominal massage. The samples were centrifuged to remove insoluble substances and then stored in liquid nitrogen. When urine proteins are to be measured, the corresponding samples were collected on parafilms. The modified Bradford protein assay was performed to examine urine protein concentration, the picric acid colorimetric kit (Sigma 555-1) was used for detecting creatinine, and an urease assay kit provided by Sigma (640-5) was used for determining the level of blood urea nitrogen (BUN).

`COc1cccc2c1C(=O)c1c(O)c3c(c(O)c1C2=O)C[C@@](O)(C(=O)CO)C[C@@H]3O[C@H]1C[C@H](N)[C@H](O)[C@H](C)O1` [adriamycin]: the serum creatinine level (control mice 0.48±0.03) was 2.02 ± 0.17 mg/dL. The urine protein level (control mice 0.59±0.082) was determined as 16.84 ± 3.13 mg/mL. Further, the “BUN (blood urea nitrogen) level” value (control mice 21.85±1.99) worked out at 71.42 ± 8.09 mg/dL.
